Reference: patent publication US7807654B2, “Compositions and methods for treatment of mitochondrial diseases” (Wellstat Therapeutics Corporation, priority 1998, dated 2010)

What was measured:
[1] = test system: 3NP treated mice; assay: 3-nitropropionic acid (3NP) model of epilepsy; type: in vivo, CD-1 mice
Description: 3-nitropropionic acid (3NP) is a mitochondrial toxin that acts by inhibiting Complex II of the respiratory chain; it is used to induce brain lesions similar to those characteristic of Huntington's disease. Seizures can also be induced by the use of 3NP as a model of epilepsy and mitochondrial dysfunction. Urbanska et al., Eur J Pharmacol, 359: 55-8 (1998). Male CD-1 mice (National Cancer Institute, NCI, Frederick. Md.) weighing between […] were used throughout. Mice were divided into groups of 5 and animals for each group were randomly chosen from different cages to avoid possible influence of age. The mice were maintained on a 12 hr light dark cycle with free access to water and food. All experiments were performed during the light period between 9:00 and 16:00 hr. Mice (n=17-20) were given 160 mg/kg 3NP and followed for seizures. 3NP was made up at 16 mg or 18 mg/ml in sterile water (pH: 7.4). 3NP was administered i.p. in a volume of 0.1 m/10 g body weight. […] Seizures were assessed similar to the methods previously described (Roberts & Keith, J Pharmacol Exp Ther, 270:505-11, 1994; Urbanska et al., Eur J Pharmacol, 359:55-8, 1998).
Behavioral observations were performed within 120 min following application of 3-NP. Three major categories of convulsive seizure response were been considered and recorded: • 1. Clonic movements: the movements of the forelimbs accompanied by facial twitching; • 2. Explosive clonic movements: the movement of all four limbs involving running, jumping and bouncing; • 3. Tonic response: including tonic flexion and tonic extension of the all four limbs.
Mortality rate was evaluated at 120 min after 3NP injection.

[2] = test system: 3NP treated mice; assay: 3-nitropropionic acid (3NP) model of Huntington's disease; type: in vivo, Swiss mice
Procedure: Male 6-8 month old Swiss mice (National Cancer Institute; NCI, Frederick, Md.) were treated with 3NP (65 mg/kg i.p.) daily for 4 days to induce mortality, neuronal cell loss and behavioral impairment with n=8/group. […] On day 9, the mice were perfuse fixed with 10% buffered formalin and processed for silver staining to detect neuronal damage. […] There was no mortality in the 3NP+TAU group, but 3 of 8 mice died in the vehicle+3NP group.
Behavioral scoring of the 3NP treated mice was to determine whether there was any motor impairment at anytime during the study. There were 88% of the control+3NP treated mice with behavioral impairment indicated by gross observation. A decreased incidence of impairment of only 50% was found in the TAU+3NP treated mice.
The silver staining was analyzed by a pathologist blinded to the identity of tissue samples. […] However, in the control+3NP treated mice, silver staining of synaptic terminals in the striatal area (caudate/putamen area) and substantia nigra was pronounced. Silver impregnation of axons and/or synaptic terminals in the thalamus, deep mesencephalon and/or reticular formation (medulla) was also found in […] of the control+3NP treated mice. The substantia nigra projects to the striatum and these areas are especially vulnerable to damage by 3NP. The damage to the substantia nigra and striatum was prevented by TAU.

[3] = test system: MPTP treated mice; assay: MPTP model of Parkinson's disease, first study
[4] = test system: MPTP treated mice; assay: MPTP model of Parkinson's disease, second study; type: in vivo, C57/BL6 mice; conditions: MPTP b.i.d. for 2 days, sacrificed on day 9, mean ± SEM
Procedure: A second study using MPTP (25 mg/kg i.p. b.i.d. for 2 days) was performed. […] TAU or vehicle was given orally (dose of TAU=4 g/kg bw b.i.d.) starting the day before MPTP administration and ending on day 8. Mice were sacrificed on day 9.

[5] = biological target: cytochrome oxidase (Complex IV) (Homo sapiens, UniProt P00395); conditions: Brown G C, Mol. Cell. Biochem. 174:189-192, 1997; cited from earlier work
[6] = test system: mice given intrastriatal QA; assay: Quinolinic acid (QA) model of excitotoxicity; type: in vivo, Swiss mice; conditions: TAU 4 g/kg bw p.o. b.i.d.
[7] = test system: taxol-treated mice; assay: Taxol-induced neuropathy, tail-flick latency; type: in vivo; conditions: nine days after initiation of taxol 21.6 mg/kg/day i.p. for 6 days; oral triacetyluridine 4000 mg/kg b.i.d.
Procedure: Two groups of 10 mice each were treated with taxol, 21.6 mg/kg/day for 6 consecutive days by intraperitoneal injection. An additional group of 10 mice received injections of vehicle alone. One of the groups of taxol-treated mice received oral triacetyluridine, 4000 mg/kg b.i.d. Nine days after the initiation of taxol treatments, nociceptive sensory deficits were tested by determining tail-flick latency after exposure of the tip of the tail to focused thermal radiation with an infrared heat lamp. In this system, delays in the tail-flick response to radiant heat correlate with sensory nerve deficits.

[8] = test system: Normal human neural progenitor (NHNP) cells; assay: Survival of differentiated NHNP cells without glucose and with azide (LDH/MTT); type: cell-based; conditions: no glucose, sodium azide 0, 2, 4 and 8 mM, 20 hours (FIG. 16)
Procedure: NHNP cells derived from fetal brain were obtained from Clonetics (Walkersville, Md.; cat# CC-2598). The NHNP cells can be differentiated into neurons, glial cells, endothelial cells or microglial cells. […] Rockville, Md.) and hLIF (R&D System, Cat. 250-L-050. […] NHNP cells, passage 3-14 were plate in 96 well plates at 10 k cells/well and differentiated for 10 days. On the day of the experiment, cells were washed with DMEM without glucose, then incubated 20 hours in 100 μl of DMEM, no glucose and dialyzed 1% FBS (Life Technology Cat. 26300-061). […] Cell survival was assessed by the ratio of extracellular lactate dehydrogenase (LDH)/intracellular total dehydrogenase activity (MTT assay). Each condition was assayed in triplicate or quadruplicate. […] Extracellular LDH was assayed with 50 μl of supernatant using the Cytotoxicity Assay Kit (CytoTox 96 Non-Radioactive Cytotoxicity Assay; Promega, Cat. G1780. Madison, Wis.) according to kit instructions and read OD at 490 nm. After removing medium from the NHNP cells, 100 μl of assay medium (DMEM, no glucose and dialyzed 1% FBS) was added back to the cells. MTT was assayed in cells according to the kit instructions using Cell Proliferation Assay Kit (Promega, Cat. G4100. Madison, Wis.). Dye solution (15 μl) was added to each well and incubated 4 hours at 37° C. […] OD was read at 570 nm.

[9] = test system: 3NP treated mice; assay: 3NP model with TAU, creatine or coenzyme Q10: mortality and body weight; type: in vivo, CD-1 mice; conditions: for mortality due to 3NP treatment: experiments 1 and 2 (FIGS. 1 and 2), 6% TAU, 2% creatine, coenzyme Q10 200 mg/kg chow
Procedure: (§1) Retired male CD-1 mice, 7-9 months of age, (Strain: Cr:NIH (S); Source: NCI) weighing 30-40 g were housed singly throughout the study. The animals were kept on a 12-hour light/dark cycle, with food and water continuously available. The animals were acclimated to our facility for seven days before experimentation. The mice were randomly assigned treatment groups.
The mice were given 3NP at a dose of 40, 40, 50, 50, 60 and 60 mg/kg i.p. on days 1-6 and 50 mg/kg i.p. on days 5-12.
(§2) The mice were given 3NP at a dose of 40, 40, 50, 50, 60 and 60 mg/kg i.p. on days 1-6 and 50 mg/kg i.p. on days […] was made up at 4, 5 or 6.0 mg/ml in sterile water (pH to 7.4 with 1.0 NaOH) and 0.1 ml/10 g BW was given (i.p) to each mouse at 3-4 PM.
The dosing of TAU (Nagase & Co., Ltd., Chemicals Second Division, 5-1, Nihonbashi-Kobunacho, Chuo-Ku, Tokyo 103, Japan; Lot 103 H 0060) was mixed into the rodent chow at 6% weight/weight. Creatine (Sigma) was mixed into the chow at 2% (weight/weight) that is previously reported to be the optimal dose (Matthews, Yang et al. 1998). Coenzyme Q10 (Sigma) was also provided in the chow at a dose 200 mg/kg chow) previously shown to be effective (Matthews, Yang et al. 1998).
• n=9-12/group • Vehicle+Vehicle • Vehicle+3NP • TAU+3NP • Creatine+3NP • TAU and Creatine+Vehicle
• (n=8-10/group) • Vehicle+Vehicle • Vehicle+3NP • TAU+3NP • Coenzyme Q10+3NP • TAU and Coenzyme Q10+Vehicle
• (n=8-10/group) • Vehicle+Vehicle • Vehicle+3NP • 8% TAU+Vehicle • 2% TAU+3NP • 4% TAU+3NP • 8% TAU+3NP
Data were analyzed by one- or two-way ANOVA followed by comparison of treatments by the Tukey test. Data are represented as mean±SEM.

[10] = test system: 3NP treated mice; assay: 3NP model with TAU, creatine or coenzyme Q10: rotarod; type: in vivo, CD-1 mice
Procedure: as §1, §2
(§3) The dosing of TAU (Nagase & Co., Ltd., Chemicals Second Division, 5-1, Nihonbashi-Kobunacho, Chuo-Ku, Tokyo 103, Japan; Lot 103 H 0060) was mixed into the rodent chow at 6% weight/weight. Creatine (Sigma) was mixed into the chow at 2% (weight/weight) that is previously reported to be the optimal dose (Matthews, Yang et al. 1998). Coenzyme Q10 (Sigma) was also provided in the chow at a dose 200 mg/kg chow) previously shown to be effective (Matthews, Yang et al. 1998). […]
The Rotarod apparatus (San Diego Instruments, San Diego, Calif.) was used to measure fore- and hindlimb motor coordination and balance. […] The latency to fall off the rotarod within this time period was recorded. […]
(§4) Data were analyzed by one- or two-way ANOVA followed by comparison of treatments by the Tukey test. […]

[11] = test system: 3NP treated mice; assay: 3NP model with TAU, creatine or coenzyme Q10: locomotor activity; type: in vivo, CD-1 mice
Procedure: as §1, §2
as §3, with “1998).” for “1998). Coenzyme Q10 (Sigma) was also provided in the chow at a dose 200 mg/kg chow) previously shown to be effective (Matthews, Yang et al. 1998).”
The Photobeam Activity System (San Diego Instruments, San Diego, Calif.) was used to measure spontaneous activity. […] Spontaneous activity was quantified by placing mice in the Photobeam Activity System for a period of 30 min. […]
as §4

[12] = 160 mg/kg 3NP i.p., TAU 4 g/kg p.o. 2 hours prior, within 120 min

O=C(O)CC[N+](=O)[O-] [3NP, 3-nitropropionic acid]
Latency to clonic seizure ([1]; 160 mg/kg 3NP i.p., TAU 4 g/kg p.o. 2 hours prior, mean ± SEM): 23.8 ± 0.7 min | % Clonic seizures [1, 12]: 90.0% | % Running seizures [1, 12]: 42.9% | % Mortality ([1]; at 120 min after 3NP injection): 35% | mortality due to 3NP ([2]; 3NP 65 mg/kg i.p. daily for 4 days, TAU 4 g/kg bw p.o. b.i.d., n=8/group): 3 of 8 | mice with behavioral (motor) impairment by gross observation ([2]; at anytime during the study): 88% | mice with silver impregnation of axons and/or synaptic terminals in thalamus, deep mesencephalon and/or reticular formation ([2]; day 9): 80% | neuronal damage by silver staining (striatal area, substantia nigra) ([2]; day 9, blinded pathologist): pronounced

CN1CC=C(c2ccccc2)CC1 [MPTP, 1-methyl-4-phenyl-1,2,3,6-tetrahydropyridine]
mortality ([3]; MPTP 30 mg/kg i.p. b.i.d. for 1.5 days, TAU 4 g/kg p.o. b.i.d.): 71.4% | Striatal DA, MPTP-treated mice ([3]; first study, eight days after stopping MPTP, mean ± SEM): 9.2 ± 2.2 ng DA/mg protein | Striatal DA, MPTP-treated mice [4]: 15.9 ± 2.2 ng DA/mg protein

[N]=O [Nitric oxide]
concentration that inhibits cytochrome oxidase / mitochondrial respiration [5]: ~1 µM

O=C(O)c1cccnc1C(=O)O [QA, Quinolinic acid]
percent of mice surviving the 7 days ([6]; 50 nmoles QA bilaterally in striatum): 64% | percent of mice surviving the 7 days ([6]; 100 nmoles QA bilaterally in striatum): 4%

CC(=O)O[C@H]1C(=O)[C@@]2(C)[C@H]([C@H](OC(=O)c3ccccc3)[C@]3(O)C[C@H](OC(=O)[C@H](O)[C@@H](NC(=O)c4ccccc4)c4ccccc4)C(C)=C1C3(C)C)[C@]1(OC(C)=O)CO[C@@H]1C[C@@H]2O [Taxol, taxol]
Tail flick latency [7]: 16.0 ± 3.1 s

O=c1ccn([C@@H]2O[C@H](CO)[C@@H](O)[C@H]2O)c(=O)[nH]1 [Uridine, uridine]
uridine concentration required for robust protection of cells [8]: ≥ 50 µM

COC1=C(OC)C(=O)C(C/C=C(\C)CC/C=C(\C)CC/C=C(\C)CC/C=C(\C)CC/C=C(\C)CC/C=C(\C)CC/C=C(\C)CC/C=C(\C)CC/C=C(\C)CCC=C(C)C)=C(C)C1=O [coenzyme Q10]
loss in body weight due to 3NP ([9]; experiment 2 (FIG. 5)): attenuated | mortality due to 3NP treatment [9]: decreased mortality | impairment in rotarod performance at 10 RPM due 3NP treatment ([10]; experiment 2 (FIG. 11)): attenuated | decrease in activity due 3NP treatment ([11]; experiment 2 (FIG. 8)): attenuated

CN(CC(=O)O)C(=N)N [creatine]
mortality due to 3NP treatment [9]: not | impairment of rotarod performance at 5 RPM due to 3NP ([10]; experiment 1 (FIG. 10)): significantly (p<0.01) | decrease in activity due 3NP treatment ([11]; experiment 1 (FIG. 7)): not attenuated
